What was measured:
RAW264.7 cells [1] = test: Macrophage marker expression in RAW264.7 cells with activin A, activin B or Fstl3 and palmitic acid; assay type: cell-based; details: palmitic acid 200 μM
Description: (§1) Activin A (10 ng/mL), activin B (10 ng/mL), and Fstl3 (3 to 30 ng/mL) were added to RAW264.7 cells in combination as depicted in FIG. 5. Human Recombinant (R&D Systems, 338AC005), Recombinant (R&D Systems, 659AB005), and Follistatin-like 3 Recombinant (R&D Systems, 1255F3025) were used for activin A, activin B, and Fstl3, respectively. After 30 minutes, palmitic acid (a proinflammatory substance) was added to the final concentration of 200 μM and, after eight hours, RNeasy Mini Kit (250) (Qiagen, Cat. Number 74106) was used for recovering the cells to extract RNA.
Analysis was performed in the same way as Example 4. For each of palmitic acid, activin species, and Fstl3, the expression level is represented by a ratio when a measurement value of each marker relative to a measurement value of cyclophilin A in non-additive control is defined as one.

RAW264.7 cells [2] = test: Macrophage marker expression in RAW264.7 cells with activin A, activin B or SB431542 and palmitic acid; assay type: cell-based; details: for expression level of IL-6 / expression level of MCP-1 / expression level of arginase-1: compared to control
Description: (1) Induction of Macrophages by Activin Species Activin A (10 ng/mL), activin B (10 ng/mL), and SB431542 (0.1 to 1 μM) were added to RAW264.7 cells in combination as depicted in FIG. 4. Human Recombinant (R&D Systems, 338AC005) and Recombinant (R&D Systems, 659AB005) were used for activin A and activin B, respectively. After 30 minutes, palmitic acid (a proinflammatory substance) was added to the final concentration of 200 μM and, after eight hours, RNeasy Mini Kit (250) (Qiagen, Cat. Number 74106) was used for recovering the cells to extract RNA. The RNA extracted at step (1) was used for performing a reverse transcription reaction in accordance with the protocol of High Capacity cDNA Reverse Transcription Kit with RNase Inhibitor (ABI) to perform TaqMan PCR. Arginase-1 was selected as an M2 macrophage marker and IL-6 and MCP-1 were selected as M1 macrophage markers to create respective TaqMan probes. Analysis was performed in the same way as the expression analysis of macrophage markers of Example 1.

RAW264.7 cells [3] = test: Expression of M2 macrophage markers in RAW264.7 cells cultured with activin A and SB431542; assay type: cell-based; details: SB431542 0.1 to 1 μM added with activin A, 24 hours
Description: Activin A (10 ng/mL or 30 ng/mL) and SB431542 (0.1 to 1 μM, Santa Cruz Biotechnology, Inc., sc-204265) were added to RAW264.7 cells in combination as depicted in FIG. 2. Human Recombinant (R&D Systems, 338AC005) was used for activin A. After 24 hours, RNeasy Mini Kit (250) (Qiagen, Cat. Number 74106) was used for recovering the cells to extract RNA. The RNA extracted at step (1) was used for performing a reverse transcription reaction in accordance with the protocol of High Capacity cDNA Reverse Transcription Kit with RNase Inhibitor (ABI) to perform TaqMan PCR. Arginase-1, Mrc2 (mannose receptor 2), and IL-10 were selected as M2 macrophage markers to create respective TaqMan probes.

RAW264.7 cells [4] = test: Arginase-1 expression in RAW264.7 cells with activin A, Fstl3, anti-Fstl3 antibody or mouse IgG and palmitic acid; assay type: cell-based; details: Fstl3 30 ng/mL present with activin A 10 ng/mL, palmitic acid 200 μM
Description: as §1, with “Fstl3 (30 ng/mL), an anti-Fstl3 antibody or mouse IgG (0.3 to 10 μg/mL), and activin” for “Activin”, “(10” for “(10 ng/mL), activin B (10 ng/mL), and Fstl3 (3 to 30”, “6.” for “5.”
The RNA extracted at step (1) was used for performing a reverse transcription reaction in accordance with the protocol of High Capacity cDNA Reverse Transcription Kit with RNase Inhibitor (ABI) to perform TaqMan PCR. Arginase-1 was selected as an M2 macrophage marker to create TaqMan probes.

RAW264.7 cells [5] = test: Expression of M2 and M1 macrophage markers in RAW264.7 cells cultured with activin A or activin B (TaqMan PCR); assay type: cell-based; details: 10 or 30 ng/mL added individually, 8 hours
Description: Each of activin A (10 ng/mL or 30 ng/mL) and activin B (10 ng/mL or 30 ng/mL) was individually added to RAW264.7 cells. Human Recombinant (R&D Systems, 338AC005) and Recombinant (R&D Systems, 659AB005) were used for activin A and activin B, respectively. After eight hours, RNeasy Mini Kit (250) (Qiagen, Cat. Number 74106) was used for recovering the cells to extract RNA.
The RNA extracted at step (1) was used for performing a reverse transcription reaction in accordance with the protocol of High Capacity cDNA Reverse Transcription Kit with RNase Inhibitor (ABI) to perform TagMan PCR. Arginase-1 was selected as an M2 macrophage marker and IL-6 and MCP-1 were selected as M1 macrophage markers to create respective TaqMan probes. Each of mRNA expression levels is represented by a multiple when an expression level of cyclophilin A mRNA in the same sample is defined as one (hereinafter, the same applies to the examples using TaqMan PCR unless otherwise stated).

[6] = tested on: high-fat diet-fed B6 mice; test: Glucose tolerance test (GTT) in high-fat diet-fed B6 mice given recombinant adenovirus; assay type: in vivo; details: activin expressed by recombinant adenovirus, glucose 1.0 mg/g-BW into abdominal cavity
Description: Adenovirus was produced in the same way as the production of recombinant adenovirus in Example 3.
After five-week-old male B6 mice were adapted with normal diet for one week, high-fat diet was fed for twelve weeks. The recombinant adenovirus (5.0×10^11 pfu/mL) was lysed in 150 μL of PBS and administered to mice in the 18th week from the tail vein once a week for two weeks. A glucose tolerance test (GTT) was performed on seventh day after the second administration.
The GTT was performed as follows. Into the abdominal cavities of mice fasted for 16 hours from the previous day of the test, 1.0 mg/g-BW of glucose (diluted by physiological saline) was administered. Serum was separated from collected whole blood and glucose concentration was measured by Glucose-Test Wako (manufactured by Wako Pure Chemical Industries).

[7] = tested on: high-fat diet-fed B6 mice; test: Arginase-1 mRNA expression in visceral fat of high-fat diet-fed B6 mice given recombinant adenovirus; assay type: in vivo; details: twelve-week high-fat diet B6 mice, activin expressed by recombinant adenovirus via tail vein once a week for two weeks
Text: (§2) Full-length mouse inhibin βA cDNA or full-length mouse inhibin βB cDNA was amplified by using pcDNA3.1/V5-HisA (Invitrogen) in accordance with the recommended method. The amplified product was subjected to HindIII and EcoRV treatments and used for production of recombinant adenovirus. The recombinant adenovirus of inhibin βA or inhibin βB was produced by using Takara Adenovirus Expression Vector Kit (Takara) in accordance with the recommended method. For negative control, β-galactosidase-gene-containing virus attached to the kit was used. The adenovirus was transfected to HEK293 cells by using CellPhect (registered trademark) Transfection Kit (GE Healthcare) with the calcium phosphate method.
After five-week-old male B6 mice were adapted with normal diet for one week, high-fat diet was fed for twelve weeks. The recombinant adenovirus (5.0×10^11 pfu/mL) was lysed in 150 μL of PBS and administered to mice in the 18th week from the tail vein once a week for two weeks. Visceral fat was collected on seventh day after the second administration for performing reverse transcription in accordance with the protocol of High Capacity cDNA Reverse Transcription Kit with RNase Inhibitor (ABI) and the expression analysis of arginase-1 was performed with TaqMan PCR.

db/db mice = test: Arginase-1 mRNA expression in visceral fat of db/db mice given recombinant adenovirus; assay type: in vivo; details: activin expressed by recombinant adenovirus via tail vein once a week for two weeks, compared to control
Text: as §2
After seven-week-old male db/db mice were adapted for one week, 5.0×10^11 pfu/mL of the recombinant adenovirus was lysed in 150 μL of PBS and administered from the tail vein once a week for two weeks. Visceral fat was collected on seventh day after the second administration for performing a reverse transcription reaction in accordance with the protocol of High Capacity cDNA Reverse Transcription Kit with RNase Inhibitor (ABI) and the expression analysis of arginase-1 was performed with TaqMan PCR.

[8] = palmitic acid 200 μM, absence of activin species, 8 hours
[9] = SB431542 0.1 to 1 μM with palmitic acid 200 μM, absence of activin species
[10] = SB431542 0.1 to 1 μM, activin A 10 ng/mL and palmitic acid 200 μM present
[11] = SB431542 0.1 to 1 μM, activin B 10 ng/mL and palmitic acid 200 μM present
[12] = SB431542 only (0.1 to 1 μM), without palmitic acid
[13] = activin 10 ng/mL, palmitic acid 200 μM, 8 hours

CCCCCCCCCCCCCCCC(=O)O [palmitic acid]
expression of IL-6, effect of palmitic acid (RAW264.7 cells [1]; 8 hours): increased
expression of MCP1, effect of palmitic acid (RAW264.7 cells [1]; regardless of the presence of activin species, change negligible): increased
expression level of IL-6 (RAW264.7 cells [2]; [8]): remarkably increased
expression level of MCP-1 (RAW264.7 cells [2]; [8]): remarkably increased
expression level of arginase-1 (RAW264.7 cells [2]; [8]): not changed or was slightly changed

NC(=O)c1ccc(-c2nc(-c3ccc4c(c3)OCO4)c(-c3ccccn3)[nH]2)cc1 [SB431542]
activin A-induced increase in expression of arginase-1, Mrc2 and IL-10 (RAW264.7 cells [3]): reduced to the same level as control
expression level of IL-6, effect of SB431542 (RAW264.7 cells [2]; [9]): constantly increased depending on the additive concentration
palmitic acid-induced increase of MCP-1 expression, effect of SB431542 (RAW264.7 cells [2]; [9]): not changed
expression level of IL-6, effect of SB431542 (RAW264.7 cells [2]; [10]): constantly increased depending on the additive concentration
expression level of arginase-1, effect of SB431542 (RAW264.7 cells [2]; [10]): reduced depending on the additive concentration
palmitic acid-induced increase of MCP-1 expression, effect of SB431542 (RAW264.7 cells [2]; [10]): not changed
expression level of IL-6, effect of SB431542 (RAW264.7 cells [2]; [11]): constantly increased depending on the additive concentration
expression level of arginase-1, effect of SB431542 (RAW264.7 cells [2]; [11]): reduced depending on the additive concentration
palmitic acid-induced increase of MCP-1 expression, effect of SB431542 (RAW264.7 cells [2]; [11]): not changed
expression level of IL-6 (RAW264.7 cells [2]; [12]): not changed or were slightly changed
expression level of MCP-1 (RAW264.7 cells [2]; [12]): not changed or were slightly changed
expression level of arginase-1 (RAW264.7 cells [2]; [12]): not changed or were slightly changed

B1: Fstl3: Follistatin-like 3 Recombinant (R&D Systems, 1255F3025); binds to activins and inhibits binding to their receptor (protein, UniProt O95633 27-263, looked up)
Follistatin-related protein 3: MGSGNPAPGGVCWLQQGQEATCSLVLQTDVTRAECCASGNIDTAWSNLTHPGNKINLLGFLGLVHCLPCKDSCDGVECGPGKACRMLGGRPRCECAPDCSGLPARLQVCGSDGATYRDECELRAARCRGHPDLSVMYRGRCRKSCEHVVCPRPQSCVVDQTGSAHCVVCRAAPCPVPSSPGQELCGNNNVTYISSCHMRQATCFLGRSIGVRHAGSCAGTPEEPPGGESAEEEENFV
expression of arginase-1, effect of Fstl3 (RAW264.7 cells [1]; Fstl3 30 ng/mL added concurrently with activin A 10 ng/mL): reduced
expression level of MCP1, effect of FSTL3 (RAW264.7 cells [1]; Fstl3 3 to 30 ng/mL): not changed
expression level of arginase-1, effect of FSTL3 (RAW264.7 cells [4]): reduced to the same level as the control

B2: activin B: Recombinant (R&D Systems, 659AB005); in Examples 3 and 7 expressed by inhibin βB recombinant adenovirus (protein, UniProt P09529 293-407, looked up)
Inhibin beta B chain: GLECDGRTNLCCRQQFFIDFRLIGWNDWIIAPTGYYGNYCEGSCPAYLAGVPGSASSFHTAVVNQYRMRGLNPGTVNSCCIPTKLSTMSMLYFDDEYNIVKRDVPNMIVEECGCA
modifications: Inhibin beta B chain homodimer
expression level of IL-6 (M1 macrophage marker) (RAW264.7 cells [5]): not changed
expression level of MCP-1 (M1 macrophage marker) (RAW264.7 cells [5]): not changed
expression of arginase-1 (M2 macrophage marker) (RAW264.7 cells [5]; mRNA relative to cyclophilin A): remarkably increased
glucose metabolism in glucose tolerance test (GTT) [6]: improved glucose metabolism
expression level of arginase-1 in visceral fat [7]: similarly increased
expression of arginase-1 in visceral fat (db/db mice): remarkably increased
expression level of arginase-1 (RAW264.7 cells [2]; activin 10 ng/mL present, palmitic acid 200 μM added, 8 hours): remarkably increased
expression level of MCP-1, effect of activin addition (RAW264.7 cells [2]; [13]): not changed
expression of IL-6, effect of activin addition (RAW264.7 cells [2]; [13]): slightly reduced
